Data taken from US10226536B2, “Polysaccharide therapeutic conjugates” (priority 2011, dated 2019).

Columns and labels:
Lrat−/− mice [1] = assay: Oral gavage of 9-cis-R-Ac in LCA mouse model with LRAT deficiency; format: in vivo
Excerpt: (§1) We designed a polysaccharide therapeutic conjugate composition for the sustained release of 9-cis-retinyl esters to treat animal models of human retinal diseases, such as LCA. […] Unless initial high drug blood levels are unfavorable, this pharmacokinetic property could be beneficial because it relates to the therapeutic window, especially for drugs targeting peripheral tissues such as the retina through protein-mediated and protein-independent transport systems. A bolus dose could also establish a reversible depot of the drug in other tissues, thereby reducing the need for frequent dosing.

Rpe65−/− mice = assay: Retinoid treatment in LCA mouse model with RPE65 deficiency; format: in vivo
Excerpt: as §1

[2] = 9-cis-retinoid concentrations in plasma after gavage; format: in vivo, mouse
Excerpt: as §1

Lrat−/− mice [3] = conditions: dark room reared Lrat−/− mice; 6 gavages of 0.12 mg each over two weeks; vs untreated control Lrat−/− mice; cited from earlier work

| 9-cis-retinoid concentrations in plasma ([2]; 5 hours after oral administration) | 9-cis-retinoid concentrations in plasma ([2]; after gavage) | Compound | retinal morphology (Lrat−/− mice [1]) | visual function (Lrat−/− mice [1]) | retinal morphology (Rpe65−/− mice; oral gavage, Rpe65−/− mice) | visual function (Rpe65−/− mice; oral gavage, Rpe65−/− mice) | ROS layer thickness (Lrat−/− mice [3]) | RPE-ROS interface (Lrat−/− mice [3]) | visual function (Rpe65−/− mice; single dose, Rpe65−/− mice kept under laboratory lighting conditions) |
| --- | --- | --- | --- | --- | --- | --- | --- | --- | --- |
| dropped markedly to low levels | increased rapidly to high levels | CC(=O)OC/C=C(C)/C=C/C=C(C)\C=C\C1=C(C)CCCC1(C)C [9-cis-R-Ac, 9-cis-retinyl acetate] | preserves retinal morphology | improves visual function | preserves retinal morphology | improves visual function | substantially thicker | closer apposition | – |
| – | – | CC1=C(/C=C/C(C)=C\C=C\C(C)=C\C=O)C(C)(C)CCC1 [9-cis-retinal] | – | – | – | – | – | – | rescued visual function for months |
